{"source": "patent US20220000854A1", "about": "(CHASE THERAPEUTICS CORPORATION, priority 2018, published 2022)", "key": {"[1]": {"details": "in vivo; cited from earlier work"}, "Caenorhabditis elegans": {"system": "Caenorhabditis elegans", "details": "in vivo; cited from earlier work"}, "[2]": {"details": "co-treatment with pramipexole; cited from earlier work"}, "[3]": {"details": "in vivo; cited from earlier work", "remark": "listed apart in the source"}, "[4]": {"details": "large doses, acute systemic administration; cited from earlier work"}, "[5]": {"details": "4.5 mg/day with levodopa, entcapone, selegiline and zonisamide; after switch from immediate-release to extended-release; cited from earlier work"}, "[6]": {"details": "5 mg/day of pramipexole, cited from earlier work"}, "[7]": {"details": "Period 2 (with oral domperidone) versus Period 1 (pramipexole alone)", "from_the_text": "The study is single center, single-blind study.\nTo be enrolled in the study, participants must meet the following inclusion/exclusion key criteria:\nHistory of drug or other significant allergy. • 5."}, "[8]": {"details": "doses approved for motor symptoms of PD; 535 PD patients; cited from earlier work"}, "alpha-synuclein": {"target": "alpha-synuclein (Homo sapiens, UniProt P37840)", "details": "cited from earlier work"}, "[9]": {"system": "human neuroblastoma SH-SY5Y cells", "details": "cited from earlier work"}, "[10]": {"target": "human wild-type alpha-synuclein (Homo sapiens, UniProt P37840)", "details": "in vitro, by H2O2 plus cytochrome c; cited from earlier work"}, "dopaminergic neurons": {"system": "dopaminergic neurons", "details": "mouse PD model, cited from earlier work"}, "brain cell systems": {"system": "brain cell systems", "details": "cited from earlier work"}, "[11]": {"system": "6-OHDA-lesioned cell model", "details": "cited from earlier work"}, "[12]": {"system": "nigral TH-positive neurons", "details": "MPTP-treated mice, 20 mg/kg; cited from earlier work"}, "nigral dopamine neurons": {"system": "nigral dopamine neurons", "details": "6-OHDA mice, injection of 30 mg/kg; cited from earlier work"}, "[13]": {"system": "rat corticostriatal slices", "details": "0.3, 1, 3 and 10 μM; cited from earlier work"}, "[14]": {"system": "nigrostriatal dopaminergic neurons", "details": "chronic administration, compared with saline; cited from earlier work"}, "[15]": {"details": "25 mg-50 mg, alone or with levodopa; cited from earlier work"}, "A53T α-synuclein": {"target": "T1, A53T α-synuclein (Homo sapiens, UniProt P37840, A53T)", "T1 construct": "host or cells: rat brain in vivo, transduced with a viral vector", "details": "oral 40 mg/kg/day, cited from earlier work"}}}
{"compound": "CNCCC(Oc1ccc(C(F)(F)F)cc1)c1ccccc1", "note": "(stereo not drawn) [fluoxetine, 1-methylamino-3-phenyl-3-[4-(trifluoromethyl)phenoxy]propane]", "values": [{"measurement": "MPTP induced damage", "setting": "[1]", "value": "protect against"}, {"measurement": "amyloid-β-induced paralysis", "setting": "Caenorhabditis elegans", "value": "significantly delay amyloid-β-induced paralysis"}, {"measurement": "activity of pramipexole in the forced swimming test", "setting": "[2]", "value": "enhance the activity of pramipexole"}, {"measurement": "6-OHDA induced damage", "setting": "[3]", "value": "protect against"}, {"measurement": "extracellular concentrations of norepinephrine and dopamine", "setting": "[4]", "value": "significant increase in extracellular concentrations of norepinephrine and dopamine"}]}
{"compound": "CCCN[C@H]1CCc2nc(N)sc2C1", "note": "[pramipexole, (S)-6-propylamino-4,5,6,7-tetrahydro-1,3-benzothiazole-2-amine]", "values": [{"measurement": "hallucinations", "setting": "[5]", "value": "induce hallucinations"}, {"measurement": "patients with nausea", "setting": "[6]", "value": 76, "unit": "%"}, {"measurement": "patients with vomiting", "setting": "[6]", "value": 39, "unit": "%"}, {"measurement": "patients not able to complete the study", "setting": "[6]; presumably intolerable GI adverse events", "value": 36, "unit": "%"}, {"measurement": "Maximum Tolerated Dose (MTD) of pramipexole", "setting": "[7]", "value": "higher than MTD during Period 1"}, {"measurement": "neuroprotective (disease modifying) activity", "setting": "[8]", "value": "failed to evidence neuroprotective (i.e., disease modifying) activity"}, {"measurement": "synuclein oligomer formation / aggregation in vitro", "setting": "alpha-synuclein", "value": "diminishes synuclein oligomer formation in vitro"}, {"measurement": "aggregation of alpha-synuclein", "setting": "[9]", "value": "inhibit the aggregation of alpha-synuclein"}, {"measurement": "oligomerization of human wild-type alpha-synuclein", "setting": "[10]", "value": "decreases the in vitro oligomerization of human wild-type alpha-synuclein"}, {"measurement": "immunoreactivity for alpha-synuclein", "setting": "dopaminergic neurons; rotenone", "value": "reducing immunoreactivity for alpha-synuclein"}, {"measurement": "toxic effects of rotenone on dopaminergic neurons", "setting": "dopaminergic neurons", "value": "inhibits the toxic effects of rotenone on dopaminergic neurons"}]}
{"compound": "CCC(C)(C)C(=O)O[C@H]1C[C@@H](C)C=C2C=C[C@H](C)[C@H](CC[C@@H]3C[C@@H](O)CC(=O)O3)[C@H]21", "note": "[simvastatin, (1S,3R,7S,8S,8aR)-8-{2-[(2R,4R)-4-hydroxy-6-oxotetrahydro-2H-pyran-2-yl]ethyl}-3,7-dimethyl-1,2,3,7,8,8a-hexahydronaphthalen-1-yl 2,2-dimethylbutanoate]", "values": [{"measurement": "protection against 6-hydroxydopamine (6-OHDA)", "setting": "brain cell systems", "value": "protect against the deleterious consequences of the dopaminergic neurotoxin 6-hydroxydopamine"}, {"measurement": "neuroprotection against dopaminergic neurodegeneration", "setting": "[11]", "value": "robust neuroprotection against dopaminergic neurodegeneration"}]}
{"compound": "NS(=O)(=O)Cc1noc2ccccc12", "note": "[zonisamide, benzo[d]isoxazol-3-ylmethanesulfonamide]", "values": [{"measurement": "loss of nigral TH-positive neurons", "setting": "[12]", "value": "reduced the loss of nigral TH-positive neurons"}, {"measurement": "striatal dopamine depletion", "setting": "[12]", "value": "attenuating the associated striatal dopamine depletion"}, {"measurement": "loss of nigral dopamine neurons", "setting": "nigral dopamine neurons", "value": "prevented the loss of nigral dopamine neurons"}, {"measurement": "rotenone-induced toxicity (loss of corticostriatal field potential amplitude)", "setting": "[13]", "value": "significantly reduced the rotenone-induced toxicity"}, {"measurement": "survival of nigrostriatal dopaminergic neurons", "setting": "[14]", "value": "improved the survival of nigrostriatal dopaminergic neurons"}, {"measurement": "motor symptoms", "setting": "[15]", "value": "improve motor symptoms"}, {"measurement": "synuclein oligomer formation / aggregation in vitro", "setting": "alpha-synuclein", "value": "inhibits the in vitro oligomerization and aggregation of alpha-synuclein"}, {"measurement": "survival of nigrostriatal dopamine neurons", "setting": "A53T α-synuclein", "value": "no impact on the survival of nigrostriatal dopamine neurons"}, {"measurement": "pace of degeneration", "setting": "A53T α-synuclein; four weeks after viral vector injection, versus control group", "value": "significantly delayed the pace of degeneration"}]}
